Data published in patent publication US20240041042A1, “1-(PYRIDYL)-5-AZINYLPYRAZOLE DERIVATIVES, AND THEIR USE FOR CONTROL OF UNDESIRED PLANT GROWTH” (Bayer Aktiengesellschaft, priority 2020, published 2024).
Where two headings read alike, the source gives them in different places.

Tests used:
Format in all cases: in vivo
[1] = tested on: Abutilon theophrasti (ABUTH); assay: Pre-emergence herbicidal action against ABUTH; settings: 100% = plants have died
Summary of the method: (§1)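 Read-out is visual percent damage relative to untreated pots, with 100% meaning dead plants and 0% meaning no difference, assessed roughly three weeks after treatment. Compounds were applied pre-emergence to the covering soil at up to 320 g/ha.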

[2] = tested on: Alopecurus myosuroides (ALOMY); assay: Pre-emergence herbicidal action against ALOMY; settings: scored visually after about 3 weeks, 100% = plants have died
Summary of the method: as §1

[3] = tested on: Amaranthus retroflexus (AMARE); assay: Pre-emergence herbicidal action against AMARE; settings: visual scoring after about 3 weeks vs untreated controls
Summary of the method: as §1

Avena fatua (AVEFA) [4] = assay: Pre-emergence herbicidal action against AVEFA; settings: visual scoring after about 3 weeks vs untreated controls
Summary of the method: as §1

[5] = tested on: Echinochloa crus-galli (ECHCG); assay: Pre-emergence herbicidal action against ECHCG
Summary of the method: as §1

Lolium rigidum (LOLRI) [6] = assay: Pre-emergence herbicidal action against LOLRI
Summary of the method: as §1

[7] = tested on: Matricaria inodora (MATIN); assay: Pre-emergence herbicidal action against MATIN
Summary of the method: as §1

[8] = tested on: Pharbitis purpurea (PHBPU); assay: Pre-emergence herbicidal action against PHBPU
Summary of the method: as §1

[9] = tested on: Polygonum convolvulus (POLCO); assay: Pre-emergence herbicidal action against POLCO; settings: dosage 320 g/ha
Summary of the method: as §1

Setaria viridis (SETVI) [10] = assay: Pre-emergence herbicidal action against SETVI
Summary of the method: as §1

[11] = tested on: Verconica persica (VERPE); assay: Pre-emergence herbicidal action against VERPE; settings: dosage 320 g/ha
Summary of the method: as §1

Viola tricolor (VIOTR) [12] = assay: Pre-emergence herbicidal action against VIOTR
Summary of the method: as §1

[13] = tested on: Abutilon theophrasti (ABUTH); assay: Post-emergence herbicidal action against ABUTH; settings: visual rating about 3 weeks after treatment vs untreated controls (100% = plants have died, 0% = like control plants)
Summary of the method: (§2)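 Greenhouse plants sprayed at the one-leaf stage, 2–3 weeks after sowing, with WP or EC formulations plus 0.5% additive at 600 l/ha water. Activity rated visually after about 3 weeks versus untreated controls (100% = dead, 0% = like control), at 320 g/ha or lower.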

[14] = tested on: Alopecurus myosuroides (ALOMY); assay: Post-emergence herbicidal action against ALOMY; settings: visual rating about 3 weeks after treatment vs untreated controls (100% = plants have died, 0% = like control plants)
Summary of the method: as §2

[15] = tested on: Amaranthus retroflexus (AMARE); assay: Post-emergence herbicidal action against AMARE
Summary of the method: as §2

Avena fatua (AVEFA) [16] = assay: Post-emergence herbicidal action against AVEFA; settings: visual rating about 3 weeks after treatment
Summary of the method: as §2

[17] = tested on: Echinochloa crus-galli (ECHCG); assay: Post-emergence herbicidal action against ECHCG
Summary of the method: as §2

Lolium rigidum (LOLRI) [18] = assay: Post-emergence herbicidal action against LOLRI
Summary of the method: as §2

[19] = tested on: Polygonum convolvulus (POLCO); assay: Post-emergence herbicidal action against POLCO
Summary of the method: as §2

Setaria viridis (SETVI) [20] = assay: Post-emergence herbicidal action against SETVI
Summary of the method: as §2

[21] = tested on: Verconica persica (VERPE); assay: Post-emergence herbicidal action against VERPE
Summary of the method: as §2

Viola tricolor (VIOTR) [22] = assay: Post-emergence herbicidal action against VIOTR
Summary of the method: as §2

Oryza sativa (ORYSA) = settings: crop plant compatibility
Summary of the method: (§3)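 Greenhouse crops in sandy loam sprayed post-emergence at the one-leaf stage, 2–3 weeks after sowing, with WP or EC formulations in water plus 0.5% additive at 600 l/ha. Damage rated visually about 3 weeks later versus untreated controls (0% = like control, 100% = dead); suffixes a–c denote different doses.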

[23] = tested on: Triticum aestivum (TRZAS); settings: crop plant compatibility, effect vs untreated controls
Summary of the method: as §3

[24] = tested on: Matricaria inodora (MATIN); assay: Post-emergence herbicidal action against MATIN; settings: dosage 80 g/ha
Summary of the method: as §2

[25] = tested on: Pharbitis purpurea (PHBPU); assay: Post-emergence herbicidal action against PHBPU
Summary of the method: as §2

Zea mays (ZEAMX) [26] = tested on: Zea mays (ZEAMX)
Summary of the method: as §3

Zea mays (ZEAMX) [27] = settings: pre-emergence, 80 g/ha, crop plant compatibility, in comparison to untreated controls
Summary of the method: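 Scoring: visual, % of untreated control, about 3 weeks after a pre-emergence application to the soil surface. Application used WP or EC formulations diluted in water with 0.5% additive at 600 l/ha; dosage levels are marked by suffixes a, b and c.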

[28] = Dosage column 320 g/ha (title prints 3200 g/ha), scored visually after about 3 weeks
[29] = 320 g/ha, visual rating about 3 weeks after treatment
[30] = 80 g/ha, effect in comparison to untreated controls
[31] = 80 g/ha, visual rating about 3 weeks after treatment vs untreated controls (100% = plants have died, 0% = like control plants)

Post-emergence action against ORYSA in % (Oryza sativa (ORYSA); [30]) [%]	SMILES	Pre-emergence action against ABUTH [1, 28] [%]	Pre-emergence action against ALOMY ([2]; 80 g/ha) [%]	Pre-emergence action against ALOMY ([2]; 320 g/ha) [%]	Pre-emergence action against AMARE in % ([3]; 80 g/ha) [%]	Pre-emergence action against AMARE in % ([3]; 320 g/ha) [%]	Pre-emergence action against AVEFA in % (Avena fatua (AVEFA) [4]; 80 g/ha) [%]	Pre-emergence action against AVEFA in % (Avena fatua (AVEFA) [4]; 320 g/ha) [%]	Pre-emergence action against ECHCG in % ([5]; dosage 320 g/ha) [%]	Pre-emergence action against LOLRI in % (Lolium rigidum (LOLRI) [6]; dosage 320 g/ha) [%]	Pre-emergence action against MATIN in % ([7]; dosage 320 g/ha) [%]	Pre-emergence action against PHBPU in % ([8]; dosage 320 g/ha) [%]	Pre-emergence action against POLCO in % [9] [%]	Pre-emergence action against SETVI in % (Setaria viridis (SETVI) [10]; dosage 320 g/ha) [%]	Pre-emergence action against VERPE in % [11] [%]	Pre-emergence action against VIOTR in % (Viola tricolor (VIOTR) [12]; 320 g/ha, Viola tricolor) [%]	Pre-emergence action against VIOTR in % (Viola tricolor (VIOTR) [12]; dosage 80 g/ha) [%]	Post-emergence action against ABUTH in % ([13]; 80 g/ha) [%]	Post-emergence action against ALOMY in % ([14]; 80 g/ha) [%]	Post-emergence action against ECHCG in % ([17]; dosage 80 g/ha) [%]	also measured
0	CCOC(=O)COc1nn(-c2ccnc(Cl)c2)c(-c2ccc(F)nc2)c1Br [III-24]	100	100	100	100	100	100	100	100	100	100	100	100	100	100	100	100	90	100	80	Pre-emergence action against ABUTH ([1]; 80 g/ha, scored visually after about 3 weeks vs untreated controls, 0% = like control plants): 90%; Pre-emergence action against ECHCG in % ([5]; dosage 80 g/ha): 90%; Pre-emergence action against LOLRI in % (Lolium rigidum (LOLRI) [6]; dosage 80 g/ha): 100%; Pre-emergence action against SETVI in % (Setaria viridis (SETVI) [10]; dosage 80 g/ha): 100%; Post-emergence action against ABUTH in % ([13]; 320 g/ha): 90%; Post-emergence action against ALOMY in % ([14]; 320 g/ha): 100%; Post-emergence action against AMARE in % [15, 29]: 100%; Post-emergence action against AVEFA in % (Avena fatua (AVEFA) [16]; 320 g/ha): 80%; Post-emergence action against ECHCG in % ([17]; dosage 320 g/ha): 100%; Post-emergence action against LOLRI in % (Lolium rigidum (LOLRI) [18]; dosage 80 g/ha): 100%; Post-emergence action against LOLRI in % (Lolium rigidum (LOLRI) [18]; dosage 320 g/ha): 100%; Post-emergence action against POLCO in % ([19]; dosage 320 g/ha): 90%; Post-emergence action against SETVI in % (Setaria viridis (SETVI) [20]; dosage 80 g/ha): 100%; Post-emergence action against SETVI in % (Setaria viridis (SETVI) [20]; dosage 320 g/ha): 100%; Post-emergence action against VERPE in % ([21]; 320 g/ha, VERPE): 80%; Post-emergence action against VIOTR in % (Viola tricolor (VIOTR) [22]; 80 g/ha): 80%; Post-emergence action against VIOTR in % (Viola tricolor (VIOTR) [22]; 320 g/ha): 90%; Post-emergence action against TRZAS in % ([23]; 80 g/ha): 0%; Post-emergence action against TRZAS in % ([23]; 320 g/ha): 0%
10	COC(=O)[C@H](C)COC(=O)COc1nn(-c2ccccn2)c(-c2cncc(F)c2)c1Cl [Example I-74]	90	80	100	90	100	–	80	100	100	90	90	100	100	100	100	90	80	100	90	Pre-emergence action against ECHCG in % ([5]; dosage 80 g/ha): 80%; Pre-emergence action against MATIN in % ([7]; dosage 80 g/ha): 90%; Pre-emergence action against PHBPU in % ([8]; dosage 80 g/ha): 90%; Pre-emergence action against SETVI in % (Setaria viridis (SETVI) [10]; dosage 80 g/ha): 90%; Post-emergence action against AMARE in % [15, 31]: 80%; Post-emergence action against AVEFA in % (Avena fatua (AVEFA) [16]; 80 g/ha): 90%; Post-emergence action against LOLRI in % (Lolium rigidum (LOLRI) [18]; dosage 80 g/ha): 90%; Post-emergence action against MATIN in % [24]: 90%; Post-emergence action against PHBPU in % ([25]; dosage 80 g/ha): 90%; Post-emergence action against POLCO in % ([19]; dosage 80 g/ha): 90%; Post-emergence action against SETVI in % (Setaria viridis (SETVI) [20]; dosage 80 g/ha): 80%; Post-emergence action against VERPE in % ([21]; dosage 80 g/ha): 80%; Post-emergence action against ORYSA in % (Oryza sativa (ORYSA); 20 g/ha, effect vs untreated controls): 0%; Post-emergence action against TRZAS in % ([23]; 20 g/ha): 0%; Post-emergence action against ZEAMX in % (crop plant compatibility) (Zea mays (ZEAMX) [26]; 20 g/ha, ZEAMX, effect in comparison to untreated controls): 10%
10	CCOC(=O)COc1nn(-c2nc(F)ccc2F)c(-c2ccc(F)nc2)c1Br [Example I-330]	100	–	100	–	100	80	90	100	90	90	90	90	100	90	100	90	80	80	80	Pre-emergence action against MATIN in % ([7]; dosage 80 g/ha): 80%; Pre-emergence action against ZEAMX in % (Zea mays (ZEAMX) [27]): 20%; Post-emergence action against ABUTH in % ([13]; 320 g/ha): 80%; Post-emergence action against ALOMY in % ([14]; 320 g/ha): 90%; Post-emergence action against AMARE in % [15, 31]: 80%; Post-emergence action against AMARE in % [15, 29]: 80%; Post-emergence action against AVEFA in % (Avena fatua (AVEFA) [16]; 320 g/ha): 80%; Post-emergence action against ECHCG in % ([17]; dosage 320 g/ha): 90%; Post-emergence action against LOLRI in % (Lolium rigidum (LOLRI) [18]; dosage 320 g/ha): 90%; Post-emergence action against PHBPU in % ([25]; dosage 80 g/ha): 80%; Post-emergence action against PHBPU in % ([25]; dosage 320 g/ha): 90%; Post-emergence action against SETVI in % (Setaria viridis (SETVI) [20]; dosage 320 g/ha): 80%; Post-emergence action against VERPE in % ([21]; 320 g/ha, VERPE): 80%; Post-emergence action against VERPE in % ([21]; dosage 80 g/ha): 80%; Post-emergence action against VIOTR in % (Viola tricolor (VIOTR) [22]; 320 g/ha): 80%; Post-emergence action against ZEAMX in % (Zea mays (ZEAMX) [26]; crop plant compatibility, 80 g/ha, effect vs untreated controls): 10%
